US20050287514A1, “Compositions and methods useful for HCV infection” (Vertex Pharmaceuticals Incorporated, priority 2003, published 2005)

Test system: HCV
Assay: Inhibition of HCV infection of cryopreserved human fetal liver cells (cell-associated HCV RNA by multiplex RT-PCR)
Format: cell-based
Settings: VX-950 at 0.2 uM or greater; cryopreserved human fetal liver cells in HDM2; 15 hours inoculation plus additional 47 hours incubation
Method: FIG. 3 depicts the inhibition of HCV infection of cryopreserved human fetal liver cells by the HCV NS3·4a protease inhibitor VX-950 (see WO 02/18369).
Cryopreserved human fetal liver cells were thawed and allowed to adhere to wells of a collagen coated 96-well plate for 6 hours at 37° C. Non-adherent cells were removed and medium replaced with hormonally defined medium containing DMEM, BSA, nicotinamide, EGF, insulin, transferrin, and hydrocortisone (HDM2). The wells were inoculated with HCV in the presence of different concentrations of VX-950 and incubated for 15 hours at 37° C. The non-adsorbed virus was removed, the cultures washed twice with DMEM, then fresh HDM2 containing the same concentration of VX-950 was added. After incubation for an additional 47 hours, the wells were rinsed twice with PBS then the cells lysed with chaotropic buffer and RNA isolated using the Qiagen 96-well RNeasy procedure. HCV RNA was quantitated using the multiplex RT-PCR method and the mean and standard deviation of the triplicate samples at each concentration of inhibitor are presented (HCV copy number per well). […] See, FIG. 3.

## CCC[C@H](NC(=O)C1[C@H]2CCC[C@H]2CN1C(=O)[C@@H](NC(=O)[C@@H](NC(=O)c1cnccn1)C1CCCCC1)C(C)(C)C)C(=O)C(=O)NC1CC1 (stereo partly shown) [VX-950]
  inhibition of HCV replication (HCV RNA copy number per well): nearly complete inhibition of HCV replication
